{
  "source": "patent US20050130134A1",
  "about": "“Means and methods for monitoring non-nucleoside reverse transcriptase inhibitor antiretroviral therapy and guiding therapeutic decisions in the treatment HIV-AIDS” (ViroLogic, Inc., priority 2000, published 2005)",
  "key": {"[1]": {"test_system": "HIV-1 reverse transcriptase Y181C + A98G (Y181C-A98G-RTV)", "assay": "Phenotypic susceptibility assay, site directed mutant Y181C-A98G-RTV", "format": "cell-based", "conditions": ">1 loss of susceptibility", "description": "(§1) Resistance tests were carried out with resistance test vectors using two host cell types. Resistance test vector viral particles were produced by a first host cell (the resistance test vector host cell) that was prepared by transfecting a packaging host cell with the resistance test vector and the packaging expression vector. The resistance test vector viral particles were then used to infect a second host cell (the target host cell) in which the expression of the indicator gene is measured.\nThe resistance test vectors containing a functional luciferase gene cassette were constructed and host cells were transfected with the resistance test vector DNA. The resistant test vectors contained patient-derived reverse transcriptase and protease sequences that were either susceptible or resistant to the antiretroviral agents, such as nucleoside reverse transcriptase inhibitors, non-nucleoside reverse transcriptase inhibitors and protease inhibitors. The resistance test vector viral particles produced by transfecting the resistance test vector DNA into host cells, either in the presence or absence of protease inhibitors, were used to infect target host cells grown either in the absence of NRTI or NNRTI or in the presence of increasing concentrations of the drug. […] The IC50 values were determined by plotting percent drug inhibition vs. log10 drug concentration.\nHost cells were seeded in 10-cm-diameter dishes and were transfected several days after plating with resistance test vector plasmid DNA and the envelope expression vector. […] HIV capsid protein (p24) levels in the harvested cell culture media were determined by an EIA method as described by the manufacturer (SIAC; Frederick, Md.). […] The inhibitory effect of the drug was determined using the following equation: % luciferase inhibition=1-(RLUluc[drug]÷RLUluc)×100 where RLUluc [drug] is the relative light unit of luciferase activity in infected cells in the presence of drug and RLUluc is the Relative Light Unit of luciferase activity in infected cells in the absence of drug. […]"}, "[2]": {"test_system": "RTV-757 patient virus (RT V106A, V108I, V189L)", "assay": "Phenotypic susceptibility assay, RTV-757 (patient 98-757)", "format": "cell-based, HIV-1", "conditions": "RTV-757 patient virus (same patient as RTV-1033, later time point)", "description": "(§2) Transfections were performed using a calcium-phosphate precipitation procedure. […] Cell lysates were assayed for luciferase activity (FIG. 3). […] The drug inhibition curves are shown in (FIG. 3)."}, "[3]": {"test_system": "RTV-209 patient virus (RT E138A, Y188L)", "assay": "Phenotypic susceptibility assay, RTV-209 (patient 97-209)", "format": "cell-based, HIV-1", "description": "as §2\nThis patient had been previously treated with AZT, ddI, d4T and 3TC (NRTIs), indinavir (a PRIs) and adefovir. […]."}, "[4]": {"test_system": "HIV reverse transcriptase mutation at codon 230 alone or in combination with codon 181", "assay": "Phenotypic susceptibility assay, mutation at codon 230 alone or with codon 181", "format": "cell-based"}, "[5]": {"test_system": "RTV-955 patient virus (RT K101E, K103N, Y181C, G190A mixtures)", "assay": "Phenotypic susceptibility assay, RTV-955 (patient 98-955)", "format": "cell-based, HIV-1", "description": "as §2\nThis patient had been previously treated with nelfinavir (a PR1)."}, "[6]": {"test_system": "RTV-300 patient virus (RT K32N, M184V, Y188L)", "assay": "Phenotypic susceptibility assay, RTV-300 (patient 97-300)", "format": "cell-based, HIV-1", "description": "as §2\nThis patient had been previously treated with d4T and 3TC (NRTIs), indinavir (a PR1) and efavirenz (an NNRTI)."}, "[7]": {"test_system": "RTV-1058 clone 10 (RT L100I, K103N, Y188L)", "assay": "Phenotypic susceptibility assay, RTV-1058 clone 10", "format": "cell-based, HIV-1", "description": "as §2"}, "[8]": {"test_system": "patient 780 virus (RT K103N, P225H)", "assay": "Phenotypic susceptibility assay, patient 780 (FIG. 8B)", "format": "cell-based, HIV", "description": "Phenotypic Drug Susceptibility and Resistance Profile: Patients 780. This is a second example of the third pattern of NNRTI susceptibility/resistance.\nas §2"}, "[9]": {"test_system": "RTV-1057 patient virus (RT A98G, Y181C)", "assay": "Phenotypic susceptibility assay, RTV-1057 (patient 98-1057)", "format": "cell-based, HIV-1", "description": "as §2"}, "[10]": {"test_system": "RTV-1058 clone 4 (RT K103N, Y188L)", "assay": "Phenotypic susceptibility assay, RTV-1058 clone 4", "format": "cell-based, HIV-1", "description": "as §2"}, "[11]": {"test_system": "HIV reverse transcriptase K103N + Y181C double mutant", "conditions": "K103N + Y181C double mutant compared to single mutants, FIG. 5", "description": "as §1\n(§3) The resistance test vectors containing a functional luciferase gene cassette were constructed and host cells were transfected with the resistance test vector DNA. The resistant test vectors contained patient-derived reverse transcriptase and protease sequences that were either susceptible or resistant to the antiretroviral agents, such as nucleoside reverse transcriptase inhibitors, non-nucleoside reverse transcriptase inhibitors and protease inhibitors. The resistance test vector viral particles produced by transfecting the resistance test vector DNA into host cells, either in the presence or absence of protease inhibitors, were used to infect target host cells grown either in the absence of NRTI or NNRTI or in the presence of increasing concentrations of the drug. The amount of luciferase activity produced in infected target host cells in the presence of drug was compared to the amount of luciferase produced in infected target host cells in the absence of drug. Drug resistance was measured as the amount of drug required to inhibit by 50% the luciferase activity detected in the absence of drug (inhibitory concentration 50%, IC50). The IC50 values were determined by plotting percent drug inhibition vs. log10 drug concentration.\n(§4) Host cells were seeded in 10-cm-diameter dishes and were transfected several days after plating with resistance test vector plasmid DNA and the envelope expression vector. Transfections were performed using a calcium-phosphate precipitation procedure. The cell culture media containing the DNA precipitate was replaced with fresh medium, from one to 24 hours, after transfection. Cell culture media containing resistance test vector viral particles was harvested one to four days after transfection and was passed through a […] filter before being stored at −80° C. HIV capsid protein (p24) levels in the harvested cell culture media were determined by an EIA method as described by the manufacturer (SIAC; Frederick, Md.). Before infection, target cells (293 and 293/T) were plated in cell culture media. Control infections were performed using cell culture media from mock transfections (no DNA) or transfections containing the resistance test vector plasmid DNA without the envelope expression plasmid. One to three or more days after infection the media was removed and cell lysis buffer (Promega) was added to each well. […] The inhibitory effect of the drug was determined using the following equation: % luciferase inhibition=1-(RLUluc[drug]÷RLUluc)×100 where RLUluc [drug] is the relative light unit of luciferase activity in infected cells in the presence of drug and RLUluc is the Relative Light Unit of luciferase activity in infected cells in the absence of drug. IC50 values were obtained from the sigmoidal curves that were generated from the data by plotting the percent inhibition of luciferase activity vs. the log10 drug concentration."}, "[12]": {"test_system": "patient 487 virus (RT M184V, K103N)", "conditions": "FIG. 4", "description": "as §1, §3, §4"}, "[13]": {"test_system": "patient 302 virus clones K103N, P225H versus K103N, I135M, R211K", "conditions": "patient 302 clones with versus without P225H, FIG. 8C", "description": "as §1, §3, §4"}, "[14]": {"test_system": "RTV-675 patient virus (RT A98G)", "conditions": ">1 decreased susceptibility", "description": "as §1, §3, §4"}, "[15]": {"test_system": "RTV-652 patient virus (RT V108I)", "conditions": ">1 decrease, <1 increased susceptibility", "description": "as §1, §3, §4"}, "[16]": {"target": "RT with P236L substitution (Human immunodeficiency virus type 1 group M subtype B, UniProt P04585, P823L)", "conditions": "cited from earlier work; for previously reported effect of the P236L mutation: Dueweke et al. 1993"}},
  "data": [
    {"smiles": "O=C1Nc2ccc(Cl)cc2[C@@](C#CC2CC2)(C(F)(F)F)O1", "note": "[efavirenz]", "values": [
      {"measurement": "fold change in susceptibility compared to wild type control RTV", "setting": "[1]", "value": 7, "unit": "fold"}
    ]},
    {"smiles": "CC(C)Nc1cccnc1N1CCN(C(=O)c2cc3cc(NS(C)(=O)=O)ccc3[nH]2)CC1", "note": "[delavirdine]", "values": [
      {"measurement": "decrease in susceptibility", "setting": "[2]", "value": 10, "unit": "fold"},
      {"measurement": "decrease in susceptibility", "setting": "[3]", "value": 75, "unit": "fold"},
      {"measurement": "change in susceptibility", "setting": "[4]", "value": "significant decrease"},
      {"measurement": "fold change in susceptibility compared to wild type control RTV", "setting": "[1]", "value": 240, "unit": "fold"},
      {"measurement": "decrease in susceptibility", "setting": "[5]", "value": 4, "unit": "fold"},
      {"measurement": "decrease in susceptibility", "setting": "[6]", "value": 25, "unit": "fold"},
      {"measurement": "loss of susceptibility", "setting": "[7]", "value": "greater than 250 fold"},
      {"measurement": "change in susceptibility", "setting": "[8]", "value": "reduced susceptibility"},
      {"measurement": "decrease in susceptibility", "setting": "[9]", "value": 35, "unit": "fold"},
      {"measurement": "loss of susceptibility", "setting": "[10]", "value": 85, "unit": "fold"},
      {"measurement": "resistance profile", "setting": "[11]", "value": "further increase in resistance"},
      {"measurement": "resistance profile", "setting": "[12]", "value": "increased resistance"},
      {"measurement": "effect of P225H on resistance associated with K103N", "setting": "[13]", "value": "reduces the amount delavirdine resistance"},
      {"measurement": "fold change in susceptibility", "setting": "[14]", "value": 2.1, "unit": "fold"},
      {"measurement": "fold change in susceptibility", "setting": "[15]", "value": 0.97, "unit": "fold"},
      {"measurement": "previously reported effect of the P236L mutation", "setting": "[16]", "value": "delavirdine resistance"}
    ]},
    {"smiles": "Cc1ccnc2c1NC(=O)c1cccnc1N2C1CC1", "note": "[nevirapine]", "values": [
      {"measurement": "decrease in susceptibility", "setting": "[2]", "value": "greater than 800 fold"},
      {"measurement": "decrease in susceptibility", "setting": "[3]", "value": "greater than 800 fold"},
      {"measurement": "change in susceptibility", "setting": "[4]", "value": "significant decrease"},
      {"measurement": "fold change in susceptibility compared to wild type control RTV", "setting": "[1]", "value": "greater than 800 fold"},
      {"measurement": "decrease in susceptibility", "setting": "[5]", "value": 530, "unit": "fold"},
      {"measurement": "decrease in susceptibility", "setting": "[6]", "value": "greater than 800 fold"},
      {"measurement": "loss of susceptibility", "setting": "[7]", "value": "greater than 800 fold"},
      {"measurement": "change in susceptibility", "setting": "[8]", "value": "reduced susceptibility"},
      {"measurement": "decrease in susceptibility", "setting": "[9]", "value": 610, "unit": "fold"},
      {"measurement": "loss of susceptibility", "setting": "[10]", "value": "greater than 800 fold"},
      {"measurement": "resistance profile", "setting": "[11]", "value": "further increase in resistance"},
      {"measurement": "resistance profile", "setting": "[12]", "value": "increased resistance"},
      {"measurement": "effect of P225H on resistance associated with K103N", "setting": "[13]", "value": "does not alter the amount of nevirapine resistance"},
      {"measurement": "fold change in susceptibility", "setting": "[14]", "value": 6, "unit": "fold"},
      {"measurement": "fold change in susceptibility", "setting": "[15]", "value": 5, "unit": "fold"},
      {"measurement": "reduction of IC50", "setting": "[16]; P236L substitution", "value": "7 to 10", "unit": "fold"},
      {"measurement": "previously reported effect of the P236L mutation", "setting": "[16]", "value": "nevirapine hypersensitivity"}
    ]}
  ]
}
